Laboratory results: paper PMC4122495, “Small Molecule Deubiquitinase Inhibitors Promote Macrophage Anti-Infective Capacity” (PLoS ONE, 2014)
≈ marks a conversion by molar mass, not a printed value.

Assays:
L. monocytogenes [1] = assay: L. monocytogenes intracellular growth assay in RAW264.7 macrophages; assay type: cell-based, Listeria monocytogenes 10403S; set-up: decrease in Listeria intracellular viability: concentration or dose not given beside the values
Procedure: RAW264.7 cells were cultured at an initial density of 4×10^6 cells per 24-well plate and allowed to adhere overnight. Macrophages were treated with 2.5 or 5 µM of DUB inhibitors dissolved in dimethyl sulfoxide (DMSO) for 0.5 or 1 h or with equivalent volume of DMSO (vehicle control) at 37°C. For dose-response curves, macrophages were incubated with 5, 2.5, 1 and 0.5 µM of compounds 1, 3 and 4 or 2.5, 2, 1 and 0.5 µM of compounds 2 and 9 for 0.5 h or 1 h at 37°C. DUB inhibitors were removed from cell culture prior to infection by changing the medium. Macrophages were infected with L. monocytogenes at a multiplicity of infection (MOI) of 1 for 0.5 h at 37°C. The inoculum was removed by washing infected cells three times with Dulbecco’s phosphate-buffered saline (PBS), and the cells were incubated in medium containing 10 µg/ml of gentamicin to kill extracellular bacteria for the duration of the experiment. At 8 h post-infection, cells were lysed in 1 ml 0.1% Triton X-100, serially diluted and plated on Luria-Bertani (LB) agar to enumerate the number of colony forming units (CFU). CFU were counted using the Acolyte SuperCount (Microbiology International, Frederick, MD) plate reader and software. Results were normalized to DMSO-treated cells.
Supplementary file pone.0104096.s001.tif: Figure S1 Dose-response curves for selected compounds. RAW264.7 cells were incubated with DMSO (equivalent volume) or the varying concentrations of WP1130-derivatives for 0.5 h (compounds 1, 2, 4 and 9) or 1 h (compound 3). After incubation, the medium was removed, and cells were infected at 37°C for 0.5 h at an MOI of 1 with L. monocytogenes in the absence of additional drugs. Following the 0.5 h infection, cells were washed and gentamycin (10 µg/ml) was added to kill extracellular bacteria. Intracellular bacteria were enumerated at 8 h post-infection. The data represent percent of Listeria intracellular growth compared to DMSO-treated cells from three independent experiments performed in triplicate. Non-linear regression curves were performed using the GraphPad Prism software. (TIF) Click here for additional data file.

L. monocytogenes [2] = assay: Bacterial growth curve in BHI broth culture; assay type: cell-based, Listeria monocytogenes 10403S; conditions: 2.5 µM in BHI broth
Procedure: (§1) For bacterial growth curve in broth culture, an overnight culture of L. monocytogenes was back-diluted 1∶50 into BHI broth in the presence of 5 µM of compounds 1 to 4, 2.5 µM of compound 9 or equivalent volume of DMSO and incubated statically at 30°C for up to 8 h. At indicated time points (0, 2, 4, 6 and 8 h), a 50 µl-aliquot of bacteria was serially diluted and plated on LB agar to determine the number of CFU. To test the bactericidal properties of compound 9, an overnight culture of L. monocytogenes was back-diluted 1∶50 into BHI broth and allowed to grow at 37°C with shaking until an optical density at 600 nm (OD600) of ∼0.6–0.7 was obtained. Bacteria were then exposed to 1, 2.5 or 5 µM of compound 9 or equivalent volume of DMSO for 2 h at 4°C. After incubation, bacteria were serially diluted and plated on LB agar to determine CFU.

L. monocytogenes [3] = assay: Bactericidal test on exponential-phase bacteria, 2 h at 4°C; assay type: cell-based, Listeria monocytogenes 10403S; conditions: concentrations up to 5 µM, exponential growth phase
Procedure: as §1

MNV-1 = MNV-1 infection of RAW264.7 cells and plaque assay; assay type: cell-based, murine norovirus; conditions: RAW264.7 pre-treated 0.5 h with 2.5 µM; MOI 5; 8 h infection; plaque assay
Procedure: RAW264.7 cells were plated at a density of 5×10^5 cells/ml in each well of a 12-well plate and allowed to attach overnight. The following day, cells were incubated with either 5 µM WP1130 or 2.5 µM compound 9, for 30 min at 37°C. After incubation, cells were placed on ice for 1 hour where they were infected with MNV-1 at an MOI of 5. Cells were then washed three times with ice-cold PBS. Cells treated with compound 9 received media alone after washing, while media containing WP1130 or DMSO was added back to cells and the infection was allowed to proceed for 8 hours. Cells were freeze-thawed twice, and viral titers were determined by plaque assay as previously described.

Norwalk virus replicon = assay: HuNoV (Norwalk virus) replicon assay in HG23 cells, qRT-PCR; assay type: cell-based, human norovirus; conditions: 2.5 µM for 2 hours, genomes quantitated after 24 h by qRT-PCR, normalized to DMSO
Procedure: HG23 cells containing the Norwalk virus replicon plasmid under G418-selection were plated at 5×10^5 cells per well in 12-well plates and allowed to attach overnight. Afterwards, media was aspirated and replaced with fresh media containing DMSO, 5 µM WP1130, or 2.5 µM compound 9. DMSO and WP1130 remained on the cells for 24 hours, whereas compound 9 was removed after 2 hours. At the end of the experiment, media was aspirated, cells were washed once with PBS and total cellular RNA was isolated using the QIAGEN RNeasy Mini kit (QIAGEN, Valencia, CA). Following the manufacturer’s protocol, RNA was subjected to two rounds of DNase treatment. First, an on-column RNase-free DNase treatment (QIAGEN, Valencia, CA) was performed for 15 minutes at room temperature. After elution, another round of DNase treatment was performed using the DNA-free DNase removal kit (Ambion, Austin, TX). RNA concentration and purity were measured using a spectrophotometer, calculating the 260/280 ratio. RNA integrity (as well as the absence of DNA contamination) was confirmed by One-Step Reverse Transcription-Polymerase Chain Reaction (RT-PCR) using “No RT” controls. Norwalk virus genomes were then quantitated by qRT-PCR as previously described.

HG23 cells = assay: WST-1 cell viability assay in HG23 replicon cells; assay type: cell-based, human; conditions: 2.5 µM for 2 h, then 22 h
Procedure: For cell viability assays in conditions that mimicked the viral infections, RAW264.7 cells were cultured as described above and treated for 0.5 h with 5 µM WP1130 or 2.5 µM compound 9, incubated for 1 h on ice, washed three times with ice-cold PBS and incubated for an additional 8 h in presence of DMSO and WP1130 only. One and a half hours prior to the end of the experiment, the WST-1 reagent was diluted 1 in 10 in the media. For cell viability in HG23 replicon cells, DMSO and WP1130 remained on the cells for 24 h before incubation with the WST-1 reagent, whereas compound 9 was removed after a 2 h exposure and the WST-1 reagent added after an additional 22 h.

[4] = Aqueous kinetic solubility; assay type: physicochemical
USP9x = system: USP9x; set-up: method as in Donato, N. J., manuscript in preparation; conditions: cell-based assay; ref Donato, N. J., manuscript in preparation; read-out: IC50 against USP9x; cited from earlier work

For `CCCC(NC(=O)/C(C#N)=C/c1nc(Cl)ccc1Cl)c1ccc(OCCN2CCOCC2)cc1` (stereo not drawn) [Compound 9], which EC50 (L. monocytogenes [1]; Listeria monocytogenes, RAW264.7 pre-treated with varying concentrations, then infected (MOI 1), intracellular CFU at 8 h post-infection, non-linear regression) is on record?
Its EC50 is 1.92 µM.

And the “decrease in Listeria intracellular viability” value (L. monocytogenes [1]; RAW264.7 pre-treated at each compound's working condition (Fig. 2B, 5B), 8 h post-infection, vs DMSO)?
Its value is 66.1%.

And the “Decrease intracellular listeria viability (%)” value (L. monocytogenes [1]; conditions of Figure 2B and Figure 5B, maximal effective drug concentration used, 8 h post-infection, vs DMSO)?
Its value is 66.1%.

What about the “effect on overall CFU per ml by 8 h in broth culture” value (L. monocytogenes [2]) of the same compound?
The value was “did not significantly affect overall CFU per ml by 8 h”.

And the “effect on growth rate in axenic broth culture” value (L. monocytogenes [2]; up to 8 h)?
Its value is “modest decrease in the growth rate”.

What about the bactericidal activity (L. monocytogenes [3]) of the same compound?
Its bactericidal activity is “No bactericidal activity”.

What about the “decrease in MNV-1 titers compared to DMSO-treated cells” value (MNV-1) of the same compound?
Its value is “more than 2.5 logs”.

What about the “reduction of detectable Norwalk virus genomes” value (Norwalk virus replicon) of the same compound?
The value was 84.7%.

What about the “toxicity (WST-1 viability)” value (HG23 cells) of the same compound?
The value was “no toxicity”.

And the solubility kinetic ([4]; aqueous (not further specified))?
Its solubility kinetic is about 20 µM (≈ 10.1 µg/mL).

And the “improvement in solubility vs WP1130” value ([4]; compound 9 compared to WP1130)?
The value was over 6 fold.

What about the IC50 (USP9x) of the same compound?
The IC50 was 1.8 µM.
